Assay results published in patent US20050182044A1, “Combinatorial therapy with an acetylcholinesterase inhibitor and (3aR)-1,3a,8-trimethyl-1,2,3,3a,8,8a-hexahydropyrrolo[2,3,-b]indol-5-yl phenylcarbamate” (priority 2004, published 2005).
Entries after “also recorded” stand apart in the source; their conditions may differ. Like-named read-outs stand apart in the source and are kept apart here.

What was measured:
[1] = target: T1, acetylcholinesterase (AChE) (Homo sapiens, UniProt P22303); assay: IC50 for AChE inhibition, phenserine enantiomers; format: biochemical
T1 construct: host or cells: human erythrocytes
T1 sequence (P22303 32-617 isoform P22303-2 limits assumed): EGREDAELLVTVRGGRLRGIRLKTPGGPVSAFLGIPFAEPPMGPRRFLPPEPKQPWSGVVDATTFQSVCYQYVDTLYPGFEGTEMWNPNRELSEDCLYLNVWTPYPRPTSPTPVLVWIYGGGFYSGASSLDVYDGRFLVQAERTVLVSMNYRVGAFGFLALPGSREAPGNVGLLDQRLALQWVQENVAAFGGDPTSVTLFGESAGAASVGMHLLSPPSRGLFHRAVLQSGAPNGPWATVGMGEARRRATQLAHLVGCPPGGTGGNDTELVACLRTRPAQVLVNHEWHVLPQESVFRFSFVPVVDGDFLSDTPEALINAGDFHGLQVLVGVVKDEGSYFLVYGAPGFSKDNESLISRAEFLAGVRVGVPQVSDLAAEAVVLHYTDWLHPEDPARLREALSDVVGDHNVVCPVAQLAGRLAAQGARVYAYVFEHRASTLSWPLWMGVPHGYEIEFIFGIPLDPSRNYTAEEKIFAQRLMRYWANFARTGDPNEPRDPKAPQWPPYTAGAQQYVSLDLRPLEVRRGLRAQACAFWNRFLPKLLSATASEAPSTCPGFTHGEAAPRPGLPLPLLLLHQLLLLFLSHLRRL
Description: (§1) For example, the pharmacological activity of each compound may be expressed as the IC50, which is defined as the concentration (e.g., in nanomoles) required to inhibit 50% of the enzyme activity of ACHE or produce a 50% reduction in β-APP or Aβ. The AChE inhibition IC50 values may be determined by measuring the enzyme activity at each concentration and expressed as a percentage of the activity determined in the absence of each compound. This then is transformed into a logit format, where logit=In (% activity/[100−% activity]), and was plotted as a finction of the log concentration of the compound (Id.). IC50 values (i.e., logit=In (50/[100−50 =0) were determined only from correlation coefficients (r^2) of […] and when more than 50% inhibition was achieved from duplicate samples.

[2] = Randomized, double-blind, placebo-controlled 12-week study in mild to moderate Alzheimer's disease; format: in vivo, human; conditions: oral, 12 weeks
Aβ [3] = assay: Preclinical studies, Aβ levels in nerve cells; format: cell-based, rat; conditions: for reduction of Aβ levels in nerve cells: versus controls
β-APP [4] = assay: β-APP production on coadministration of (+)-phenserine with an AChEI (Example III); format: cell-based
Description: The compounds may be tested by the procedure utilized in Example II.

β-APP [5] = assay: β-APP levels in neuroblastoma cell culture (Western blot, mAb 22C11); format: cell-based, human; conditions: for β-APP levels, intracellular and extracellular: SK-N-SH cells, 5 or 50 μM, up to 16 hours, vs control, no cellular toxicity (LDH), FIG. 4/5; for intracellular β-APP level: donepezil treatment, FIG. 2
Method: Acad. Sci. USA 98 (13):7605-7610. The methodology of Shaw et al. for carrying out these tests is summarized as follows:
(§2) SK—N—SH neuroblastoma cells were cultured on 60 mm dishes at a concentration of 3×10^6 cells, and SH—SY-5Y neuroblastoma cells were plated in 100 mm dishes at a concentration of 3×10^5 cells. The cells were allowed to grow in complete media (10% FBS, 2 mM glutamine in DMEM) for 3 to 4 days until they reached 70% confluence.
Lysate preparation: At each time point, the spent medium was collected and stored at −70 C for later analysis of secretory β-APP levels. Cell lysates were prepared as reported previously (Lahiri et al. (1997) Effects of Cholinesterase Inhibitors on the Secretion of Beta-Amyloid Precursor Protein in Cell Cultures, Ann. N.Y Acad. Sci. 826:416-421; and Lahiri et al. (1998) The Secretion of Amyloid Beta-Peptides is Inhibited in the Tacrine-Treated Human Neuroblastoma Cells, Mol. Brain Res. 62:131-140). Protein levels of the supernatant were analyzed by the Bradford protein assay (BioRad, Mellville, N.Y.).
Western Blot: Fifteen μg of protein from each sample was loaded onto a 10% NuPAGE Bis-Tris gel in 1× NuPAGE MOPS SDS running buffer (NOVEX, San Diego, Calif.) and the proteins separated at 200 V for 45 minutes. The gels were then transferred onto nitrocellulose at 25 V for 1.5 hours. Non-specific binding was blocked, and each blot was probed for 2 hours with either 22C11 anti-β-APP N-terminal antibody (2.5 μg/mL, Boehringer Mannheim, Indianapolis, Ind.) or anti-activated ERK antibody (25 ng/mL, Promega, Madison, Wis.). Anti-mouse IgG- or anti-rabbit IgG, conjugated to horse radish peroxidase, were used as secondary antibodies. Equivalent loading of samples was determined by Ponceau S staining (Sigma, St. Louis, Mo.). Densimetric quantification of the chemiluminescence of blots was undertaken by using a […] and NIH-IMAGE (version 4.1).

[6] = i.p. administration to rodents, cholinergic over-stimulation symptoms
Description: This is a classical central (i.e., brain) cholinergic over-stimulation (overdrive) effect.

Aβ [7] = assay: Aβ levels in neuroblastoma cell culture (ELISA); format: cell-based, human; conditions: for secreted levels of Aβ: SK-N-SH cells, 5 or 50 μM, up to 16 hours, vs control, no cellular toxicity (LDH), FIG. 4/5
Method: as §2
Total Aβ Assay: Total Aβ peptide levels in SH—SY-5Y and SK—N—SH cultured samples were assayed by a sensitive ELISA assay (Suzuki et al., (1994) An Increased Percentage of Long Amyloid Beta Protein Secreted by Familial Amyloid Beta Protein Precursor (beta APP717) Mutants, Science 264:1336-1340). For total Aβ peptide measurements, a sandwich immunoassay with rabbit polyclonal antibody to residues 1-40 of Aβ or a monoclonal antibody to residues 17-25 of Aβ as a capture antibody for all species of Aβ peptide, Aβ1-40 and Aβ1-42, was used, and the values were expressed as the mean of six independent assays.

[8] = target: T1, acetylcholinesterase (AChE); conditions: compared with the negative enantiomer; Pei, Greig et al. (1995); cited from earlier work
β-APP [9] = assay: CSF levels of β-APP in naive and forebrain-lesioned rats; format: in vivo, rat; conditions: for CSF levels of β-APP: vs untreated controls, FIG. 6
Method: Lesions were induced with […] N-methyl-D-aspartic acid (50 nMol) (64-68).

AChE [10] = target: T2, AChE (Homo sapiens, UniProt P22303); assay: biochemical; conditions: IC50 Value AChE, Brain
T2 construct: other: Brain
T2 sequence (P22303 whole entry): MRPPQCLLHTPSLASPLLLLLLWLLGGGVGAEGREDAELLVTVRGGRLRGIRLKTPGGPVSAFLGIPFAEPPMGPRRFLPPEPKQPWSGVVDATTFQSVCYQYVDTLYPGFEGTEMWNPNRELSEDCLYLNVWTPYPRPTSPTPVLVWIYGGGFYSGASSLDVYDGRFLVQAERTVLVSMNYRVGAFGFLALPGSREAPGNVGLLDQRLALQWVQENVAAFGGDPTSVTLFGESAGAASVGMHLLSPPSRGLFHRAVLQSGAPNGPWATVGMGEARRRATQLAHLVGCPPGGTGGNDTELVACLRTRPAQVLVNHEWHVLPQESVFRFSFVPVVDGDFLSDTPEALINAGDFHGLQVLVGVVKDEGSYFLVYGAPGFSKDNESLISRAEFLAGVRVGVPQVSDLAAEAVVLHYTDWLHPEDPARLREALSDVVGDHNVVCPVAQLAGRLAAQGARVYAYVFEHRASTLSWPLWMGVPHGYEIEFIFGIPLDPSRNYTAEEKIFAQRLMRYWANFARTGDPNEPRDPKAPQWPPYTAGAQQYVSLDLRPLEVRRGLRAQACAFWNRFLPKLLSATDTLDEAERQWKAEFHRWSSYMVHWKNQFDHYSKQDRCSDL
Description: as §1

AChE [11] = target: T3, AChE (Rattus norvegicus, UniProt P37136); assay: In vivo AChE inhibition in plasma after i.v. administration; design: species or system Fischer-344 rats; conditions: iv, 1 mg/kg i.v.
T3 construct: Samples of plasma were removed to measure untreated levels of AChE activity; from tissue; host or cells: plasma of Fischer-344 rats
T3 sequence (P37136 32-614): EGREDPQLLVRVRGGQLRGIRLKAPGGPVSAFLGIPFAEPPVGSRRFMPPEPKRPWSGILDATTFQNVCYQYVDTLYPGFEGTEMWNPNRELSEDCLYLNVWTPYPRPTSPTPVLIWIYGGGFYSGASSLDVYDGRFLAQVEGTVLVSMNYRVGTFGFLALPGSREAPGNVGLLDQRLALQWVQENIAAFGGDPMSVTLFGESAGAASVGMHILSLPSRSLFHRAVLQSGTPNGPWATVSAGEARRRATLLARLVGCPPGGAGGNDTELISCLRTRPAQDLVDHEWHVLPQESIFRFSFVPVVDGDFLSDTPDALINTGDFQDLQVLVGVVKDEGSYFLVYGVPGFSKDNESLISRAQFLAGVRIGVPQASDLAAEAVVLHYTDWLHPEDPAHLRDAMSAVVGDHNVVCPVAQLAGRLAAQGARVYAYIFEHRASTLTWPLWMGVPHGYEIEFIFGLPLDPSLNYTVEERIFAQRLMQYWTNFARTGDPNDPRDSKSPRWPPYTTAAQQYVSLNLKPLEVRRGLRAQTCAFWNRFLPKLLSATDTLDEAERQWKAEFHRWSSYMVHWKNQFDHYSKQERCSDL
Method: In this experiment, three-month-old male Fischer-344 rats were anesthetized with halothane. PE 50 catheters, filled with heparinized isotonic saline, were tied into their right femoral artery and vein. Animals then were restrained with a plaster cast that enabled them to move their head and forequarters only and were allowed to recover from anesthesia in a temperature-controlled enclosure. Samples of plasma were removed to measure untreated levels of AChE activity. At 90 minutes after surgery, hexamethonium bromide (5 mg/kg) was administered intraperitoneally, followed by subcutaneous injection of atropine methyl bromide (4 mg/kg) 10 minutes later. […] Both were formulated in a manner consistent for intravenous bolus injection. Plasma samples were removed and immediately frozen at −70° C., just prior to intravenous administration of the inhibitors and at times between 2 minutes and 8 hours.

BChE = target: T4, BChE (Homo sapiens, UniProt P06276); assay: BChE inhibition IC50 (RBC/plasma and brain); format: biochemical
T4 construct: (−)-Phenserine (RBC/plasma); from tissue; host or cells: plasma (RBC/plasma rows); brain (Brain rows)
T4 sequence (P06276 29-602, species assumed): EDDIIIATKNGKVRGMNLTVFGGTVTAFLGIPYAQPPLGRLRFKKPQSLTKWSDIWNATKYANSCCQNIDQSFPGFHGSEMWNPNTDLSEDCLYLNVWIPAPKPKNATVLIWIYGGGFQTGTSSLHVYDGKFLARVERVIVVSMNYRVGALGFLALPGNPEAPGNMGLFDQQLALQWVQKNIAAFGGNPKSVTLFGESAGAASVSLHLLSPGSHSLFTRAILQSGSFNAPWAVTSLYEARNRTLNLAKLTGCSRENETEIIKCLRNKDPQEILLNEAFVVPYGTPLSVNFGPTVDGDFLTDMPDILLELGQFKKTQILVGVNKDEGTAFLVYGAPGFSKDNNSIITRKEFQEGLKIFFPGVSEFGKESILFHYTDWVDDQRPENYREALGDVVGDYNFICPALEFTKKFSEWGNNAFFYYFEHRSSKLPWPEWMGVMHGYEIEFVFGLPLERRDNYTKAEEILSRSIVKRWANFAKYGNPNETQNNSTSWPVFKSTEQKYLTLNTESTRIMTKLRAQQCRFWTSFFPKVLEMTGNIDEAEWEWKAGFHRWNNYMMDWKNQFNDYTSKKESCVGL

β-APP [12] = assay: Preclinical studies, β-APP levels; format: cell-based, rat; conditions: versus controls
β-APP [13] = assay: β-APP levels in adult rats after three weeks of daily administration; format: in vivo, rat; conditions: daily for three weeks, metrifonate 80 mg/kg, tacrine 3 mg/kg, data not shown
Method: The levels of β-APP were measured by 22C11 (epitope APP 66-81).

[14] = extracellular β-APP levels, read-out: IC50 for β-APP secretion
[15] = intracellular β-APP levels, read-out: IC50 for intracellular β-APP
[16] = human neuroblastoma cells, 2 μM, 10 μM and 50 μM (text: 50 μM), FIG. 3

CN1CC[C@]2(C)c3cc(OC(=O)Nc4ccccc4)ccc3N(C)C12 (single isomer, unassigned; (+)) [(+)-phenserine]
IC50 [1]: > 25000 nM | efficacy test level (NPI, CGIC, ADAS-cog, MMSE, CANTAB, ADCS-ADL) vs First Level ([2]; 50 mg bid with 5 mg bid (−)-phenserine): maintain a level at least as great as the First Level | efficacy test level (NPI, CGIC, ADAS-cog, MMSE, CANTAB, ADCS-ADL) vs First Level ([2]; 50 mg bid with 6-12 mg per day rivastigmine): maintain a level at least as great as the First Level | Aβ levels (Aβ [3]; combined with (−)-phenserine): further reduced | production of β-APP (β-APP [4]; coadministered with donepezil): reduce the production of β-APP | production of β-APP (β-APP [4]; coadministered with eptastigmine): reduce the production of β-APP | production of β-APP (β-APP [4]; coadministered with galantamine): reduce the production of β-APP | production of β-APP (β-APP [4]; coadministered with huperzine A): reduce the production of β-APP | production of β-APP (β-APP [4]; coadministered with rivastigmine): reduce the production of β-APP | β-APP levels, intracellular and extracellular (β-APP [5]): significantly lowered | β-APP levels, intracellular and extracellular (β-APP [5]; listed as (+)-Phenserine): capable of reducing the β-APP and Aβ protein levels | IC50 (β-APP [5]; [14]): ~670 nM | IC50 (β-APP [5]; [15]): ~1100 nM | observed symptoms ([6]; 20 mg/kg i.p.): entirely without symptoms | secreted levels of Aβ (Aβ [7]): significantly lowered | secreted levels of Aβ (Aβ [7]; listed as (+)-Phenserine): capable of reducing the β-APP and Aβ protein levels | activity as an inhibitor of human acetylcholinesterase [8]: far less active

CN1CC[C@@]2(C)c3cc(OC(=O)Nc4ccccc4)ccc3N(C)C12 (single isomer, unassigned; (-)) [(−)-phenserine]
reduction of Aβ levels in nerve cells (Aβ [3]; after 8 hours): 14% | reduction of Aβ levels in nerve cells (Aβ [3]; after 16 hours): 31% | extracellular β-APP in the CSF, dose dependence of the decrease (β-APP [9]; adult rats, up to very high doses): reaches a plateau that is not further decreased even at very high doses | CSF levels of β-APP (β-APP [9]; naive rats, 2.5 mg/kg, 2.5 mg/kg): lowered β-APP levels; also recorded: reduce β-APP levels | CSF levels of β-APP (β-APP [9]; rats with cholinergic forebrain (nucleus basalis of Meynert) lesions): lowered β-APP levels | IC50 (AChE [10]): 36 ± 3 nM | inhibition at 1 mg/kg (AChE [11]; at 5 minutes, read-out: maximum AChE inhibition): 73.5% | inhibition at 1 mg/kg (AChE [11]; at 8 hours, read-out: AChE inhibition): 43% | β-APP levels, intracellular and extracellular (β-APP [5]): significantly lowered; also recorded: reduces β-APP and Aβ levels in a concentration-dependent manner; also recorded: decreased the β-APP levels | IC50 (β-APP [5]; [14]): ~670 nM | IC50 (β-APP [5]; intracellular β-APP levels, read-out: IC50 for inhibition of β-APP, intracellular): ~1100 nM | IC50 (β-APP [5]; [15]): ~1100 nM | IC50 (BChE; Brain): 2500 ± 1100 nM | IC50 (BChE; RBC/plasma): 1560 ± 270 nM | duration of fine tremor ([6]; 5 mg/kg i.p.): about 1 hour | observed symptoms ([6]; 5 mg/kg i.p.): a fine tremor was observed | observed symptoms ([6]; 7.5 mg/kg i.p.): Tremor, together with symptoms of peripheral over-stimulation (specifically, lacrimation and salivation) | observed symptoms ([6]; 20 mg/kg i.p.): incapacitated by severe tremor and peripheral side effects | animals killed when moribund ([6]; 20 mg/kg i.p., of 5 treated animals): 2 | levels of β-APP (β-APP [12]): similarly reduced | secreted levels of Aβ (Aβ [7]): significantly lowered; also recorded: reduces β-APP and Aβ levels in a concentration-dependent manner; also recorded: substantially reduced from that of the controls especially at 16 hours

COP(=O)(OC)C(O)C(Cl)(Cl)Cl (centres unmarked) [Metrifonate]
secreted β-APP levels (β-APP [13]): did not alter

Nc1c2c(nc3ccccc13)CCCC2 [Tacrine]
secreted β-APP levels (β-APP [13]): did not alter

COc1cc2c(cc1OC)C(=O)C(CC1CCN(Cc3ccccc3)CC1)C2 (centres unmarked) [donepezil, reference compound]
intracellular β-APP level (β-APP [5]): decreased intracellular levels | intracellular β-APP level (β-APP [5]; listed as Donepezil): reduces intracellular β-APP

CCN(C)C(=O)Oc1cccc([C@H](C)N(C)C)c1 [rivastigmine, reference compound]
secreted β-APP (β-APP [5]; [16]): elevated secretion of β-APP; also recorded: elevates the levels of secreted β-APP | Aβ peptide levels (Aβ [7]; [16]): No statistically significant change; also recorded: without a statistically significant change
